Test results: US12076330B2, “Inhibition of lipofuscin aggregation by molecular tweezers” (The Regents of the University of California, priority 2018, dated 2024)
Entries after “also recorded” stand apart in the source; their conditions may differ.

Columns and labels:
Type in all cases: cell-based, human
[1] = test system: lipofuscin (A2E) aggregation in ARPE-19 cells (retinal pigmented epithelium); assay: Lipofuscin A2E accumulation/aggregation in ARPE-19 cells, fluorescence microscopy after 6 h
Procedure: (§1) Panel A) CLR01 in PBS and lipofuscin A2E were added to the cells at the indicated times. Cells were incubated up to 6 h in all cases and were imaged using a fluorescence microscope for visualization of lipofuscin autofluorecence (red) and cell nuclei (DAPI, blue). Panel B) Quantification of the data shown in panel A (N=15 per condition). C) Confocal microscopy images showing that lipofuscin colocalizes with the Lysosomal-membrane marker lamp1.
To test the effect of CLR01 on lipofuscin aggregation, human, ARPE-19 cells (retinal pigmented epithelium; RPE) were treated with lipofuscin (A2E) in the absence or presence of CLR01 and imaged by fluorescence microscopy at the end of 6 h of incubation (FIG. 1, panel A), as follows: • Condition 1—negative control—20 μl of PBS was added to the cells at t=0 and 20 μl of DMSO at t=1.5 h. • Condition 2—safety control—CLR01 in PBS at final concentration of 100 μM was added to the cells at t=0 and DMSO at t=1.5 h. • Condition 3—positive control—PBS was added to the cells at t=0 and lipofuscin A2E in DMSO at final concentration of 100 μM at t=1.5 h. Lipofuscin A2E is a specific type of lipofuscin enriched in N-retinylidene-N-retinylethanolamine (A2E), which is derived from 11-cis-retinal and accumulates in the retinal pigmented epithelium (Boyer et al. (2012) J. Biol. Chem. 287: 22276-22286). • Condition 4—CLR01 in PBS at final concentration of 100 μM was added to the cells at t=0, after 1.5 h, the media was removed, the cells were washed with F12 medium, and new media was added. Lipofuscin A2E in DMSO at final concentration of 100 μM was added at t=1.5 h. • Condition 5—Lipofuscin A2E in DMSO was added to the cells at t=0 and CLR01 in PBS at final concentration of 100 μM was added at t=1 h.

[2] = test system: lysosomes (LAMP-1) in ARPE-19 cells; assay: Confocal imaging of lipofuscin A2E and LAMP-1 in ARPE-19 cells
Procedure: as §1

[3] = test system: pre-formed lipofuscin (A2E) aggregates in ARPE-19 cells; assay: Effect on pre-formed lipofuscin aggregates in ARPE-19 cells (A2E 10 h, wash, CLR01 12 h); conditions: A2E 100 μM for 10 h, CLR01 100 μM for 12 h
Procedure: FIG. 2, panel A) CLR01 in PBS and lipofuscin A2E were added to the cells at the indicated times. Cells were incubated up to 22 hours in all cases and were imaged using a fluorescence microscope for visualization of lipofuscin autofluorecence (red) and cell nuclei (DAPI, blue). FIG. 2, panel B) Quantification of the data shown in […] (N=15 per condition). Condition 1—negative control—20 μl of DMSO was added to the cells at t=0. After 10 h, the media was removed, the cells were washed with F12 medium, and new media was added. Condition 2—positive control—Lipofuscin A2E in DMSO at final concentration of 100 μM was added to the cells at t=0. After 10 h, the media was removed, the cells were washed with F12 medium, and new media was added. Condition 3—Lipofuscin A2E in DMSO was added to the cells at t=0. After 10 h, the media was removed, the cells were washed with F12 medium, and new media was added. CLR01 in PBS at final concentration of 100 μM was added at t=10 h.
The effect of CLR01 on pre-formed lipofuscin aggregates was tested as well. Human, ARPE-19 cells were treated with lipofuscin (A2E) for 10 h (to let lipofuscin aggregates form). Upon washing the cells to remove A2E from the media, CLR01 was added to the medium for an additional period of 12 h. Cells were then imaged by fluorescence microscopy and fluorescence quantified (FIG. 2). […]

With CLR01 the “inhibition of lipofuscin accumulation and aggregation (overall finding)” value ([1]; ARPE-19 retinal cells, CLR01 100 μM, lipofuscin A2E 100 μM) was “inhibits lipofuscin accumulation and aggregation; also recorded: powerfully inhibits the formation of lipofuscin aggregates”, the “harm to the cells (safety control)” value ([1]; condition 2: CLR01 100 μM at t=0, DMSO at t=1.5 h, no A2E, ARPE-19 cells, 6 h) was “did not harm the cells” and the “reduction of the accumulation of lipofuscin aggregates at 6 h” value ([1]; condition 4: CLR01 100 μM at t=0, washed out after 1.5 h, then lipofuscin A2E 100 μM, ARPE-19 cells, 6 h) was roughly 60%. The “accumulation of lipofuscin aggregates” value ([1]; condition 5: lipofuscin A2E at t=0, CLR01 100 μM added at t=1 h, ARPE-19 cells, 6 h) was “reduced almost to the negative-control level”, the lysosome integrity [2] was “lysosome integrity was not affected” and the “clearing effect compared with condition 5 of FIG. 1 (CLR01 added simultaneously with lipofuscin loading)” value [3] was “lower”.
